Test results from US20220202882A1, “EFFECT OF COMBINATION OF BIFIDOBACTERIUM AND BERBERINE ON PRE-DIABETES AND TYPE 2 DIABETES” (The Fourth Military Medical University, priority 2018, published 2022).
Counter-ions that a name gives are not always drawn.

Test system: pre-diabetic and type 2 diabetes mellitus patients
Test: Clinical trial: glycosylated hemoglobin (HbA1c)
Assay type: in vivo, human
Settings: for Effect on glycosylated hemoglobin level (in words) / Post-treatment HbA1c - pre-treatment HbA1c, mean value / Post-treatment HbA1c <7.0% with no hypoglycemia, Yes-N (%) / Post-treatment HbA1c <7.0%, Yes-N (%): 16 weeks of treatment; for Effect on glycosylated hemoglobin level (in words): Kruskal-Wilcox test; for Post-treatment HbA1c, mean value: after 16 weeks of treatment; for Pre-treatment HbA1c, mean value: baseline before treatment
Procedure: From June 2015 to October 2018, a double-blind, randomized, and parallel-controlled trial, studying the effects of the combined use of Bifidobacterium and berberine on pre-diabetic and type 2 diabetes mellitus patients, was conducted in 10 research centers in Xi'an, Yan'an and Shangluo of Shaanxi province, etc., including the First Affiliated Hospital of the Fourth Military Medical University. The trial included an enrollment stage of 2 weeks and a treatment stage of 16 weeks. After passing the first visit 1 (see V1 in Table 1), the subjects entered the enrollment stage, i.e., 2 weeks of lifestyle intervention, followed by a re-screening (see V2 in Table 1). The subjects were subjected to a 16-week course of treatment after passing the screening. See Table 1 for the detailed screening parameters. After the enrollment stage, the baseline data of the 300 successfully enrolled subjects were collected. Meanwhile, the subjects started to receive lifestyle guidance, and were randomly divided into four groups for 16 weeks of treatments. 1) Bifidobacterium group: the subjects were administered with Bifidobacterium capsules (Livzon Pharmaceutical Group Inc., batch no.: 20141013), 0.35 g/capsule, each capsule containing 50,000,000 viable bacteria (Bifidobacterium adolescentis DM8504), 2 capsules/time, 2 times/day, plus berberine placebo tablets (Northeast Pharma Group Shenyang First Pharma Co., Ltd., Lot no.: 20150101, containing 80.2% microcrystalline cellulose, 9.4% pregelatinized starch, 6.4% sodium carboxymethyl starch, 1% magnesium stearate, and 3% copovidone), 0.1 g/tablet, 5 tablets/time, 2 times/day. 2) Berberine group: the subjects were administered with berberine tablets (Northeast Pharma Group Shenyang First Pharma Co., Ltd., Lot no.: 130917, each tablet weighted 0.165 g and contained 0.1 g active berberine ingredient (berberine hydrochloride), with the same excipients as the placebo tablets), 5 tablets/time, 2 times/day, plus Bifidobacterium placebo capsules (Livzon Pharmaceutical Group Inc., Lot no.: 141001, specifically containing 0.348 g spray-dried lactose, and 0.002 g magnesium stearate), 0.35 g/capsule, 2 capsules/time, 2 times/day. 3) Combination Group: the subjects were administered with Bifidobacterium capsules, 0.35 g/capsule, each capsule containing 50,000,000 viable bacteria (B. adolescentis DM8504), 2 capsules/time, 2 times/day, plus berberine tablets, 0.1 g/tablet, each tablet containing 0.1 g active berberine ingredient (berberine hydrochloride), 5 tablets/time, 2 times/day. 4) Control group: the subjects were administered with Bifidobacteria placebo capsules, 0.35 g/capsule, 2 capsules/time, 2 times/day, plus berberine placebo tablets, 0.1 g/tablet, 5 tablets/time, 2 times/day. Bifidobacterium capsules were taken after meals and berberine tablets were taken before meals. Before blood collection, the subjects were kept still for 5 min. For serum insulin assays, 5 ml of whole blood was collected at fasting, and 30 min and 2 h post glucose intake, and then subjected to centrifugation […]. The obtained serum was collected in the cryogenic vials. For the glycosylated hemoglobin (HbA1c) test, 2 ml of whole blood was collected and placed in EDTA-containing tubes. For the GLP-1 and glucagon measurements, 5 ml of whole blood was collected in vacutainers containing EDTA and aprotinin at fasting, and 30 min and 2 h post meals, subjected to centrifugation, and the obtained serum was collected in cryogenic vials and stored at −20° C. Soybean-sized stool sample was placed in a dry and sterile collection tube, and sent to the detection center within 24 h for cryopreservation. […]

Compound | Effect on glycosylated hemoglobin level (in words) | Post-treatment HbA1c - pre-treatment HbA1c, mean value (FAS) | Post-treatment HbA1c <7.0% with no hypoglycemia, Yes-N (%) (FAS) | Post-treatment HbA1c <7.0%, Yes-N (%) (FAS) | Post-treatment HbA1c, mean value (FAS) | Pre-treatment HbA1c, mean value (FAS) | Post-treatment HbA1c <7.0% with no hypoglycemia, Yes-N (%) (PPS) | Post-treatment HbA1c <7.0%, Yes-N (%) (PPS)
Bifidobacterium | no glycosylated hemoglobin lowing effect | −0.0545% | 76(76.00) N (%) | 88(88.00) N (%) | 6.1500% | 6.1900% | 61(73.49) N (%) | 71(85.54) N (%)
COc1ccc2cc3[n+](cc2c1OC)CCc1cc2c(cc1-3)OCO2 [Berberine, berberine hydrochloride] | not significantly different from that of the combined use of berberine and Bifidobacterium | −0.1170% | 40(81.63) N (%) | 48(97.96) N (%) | 6.0800% | 6.1900% | 28(75.68) N (%) | 36(97.30) N (%)
